These results are taken from patent US20250345459A1, “COMPOUND OR SALT THEREOF, LIPID COMPOSITION, PHARMACEUTICAL COMPOSITION, AND DELIVERY CARRIER” (FUJIFILM Corporation, priority 2023, published 2025).

Data set [1] can be described thus: Particle size of EPO mRNA-encapsulating lipid nanoparticles. The conditions noted are these: mixed solution PBS. In kind it is physicochemical. The procedure: (§1) The compounds described in Table 1, the neutral lipid, cholesterol (product name: Cholesterol HP; NIPPON FINE CHEMICAL CO., LTD.), and 1,2-dimyristoyl-rac-glycero-3-(methylpolyoxyethylene 2000) (hereinafter, called DMG-PEG2000) (product name: SUNBRIGHT® GM-020; NOF corporation) were dissolved in ethanol at a molar ratio of ionized lipid:neutral lipid:cholesterol:DMG-PEG2000=50:10:38.5:1.5 mol % such that the total lipid concentration was 12.5 mmol/L, to obtain an oil phase.
(§2) As the neutral lipid, 1,2-distearoyl-sn-glycero-3-phosphocholine (product name: COATSOME® MC-8080; NOF corporation) (hereinafter, DSPC), or L-α-dioleoylphosphatidylethanolamine (hereinafter, DOPE) (product name: COATSOME® MC-8181; NOF corporation) was used.
(§3) EPO mRNA (product name: CleanCap EPO mRNA (5 moU); TriLink) was diluted with 50 mmol/L citrate buffer having a pH 4.0 such that the weight ratio of total lipid concentration to mRNA concentration is about 20:1 to 64:1, thereby obtaining a water phase. Then, the water phase and the oil phase were mixed together using NanoAssemblr (Precision NanoSystems) such that the volume ratio of water phase:oil phase was 3:1. The mixed solution was diluted 2-fold with any of phosphate buffered physiological saline (PBS), water, or a 20 mmol/L Tris buffer solution (pH 7.4) to obtain a dispersion liquid of mRNA lipid nanoparticles. The dispersion liquid was dialyzed with 20 mmol/L Tris buffer solution (pH 7.4) containing 8% sucrose using a dialysis cassette (Slide-A-Lyzer G2, MWCO: 10 kD, Thermo Fisher Scientific) to remove ethanol, thereby obtaining EPO mRNA-encapsulating lipid nanoparticles.
The particle size of the mRNA-encapsulating lipid nanoparticles was measured by 5-fold diluting the dispersion liquid of lipid nanoparticle with phosphate buffered physiological saline (PBS) using a particle size measurement device NanoSaqla (Otsuka Electronics Co., Ltd.).

The subject of data set [2] is EPO mRNA. The experiment in a line: mRNA encapsulation rate of mRNA lipid nanoparticles. The settings on record: mixed solution PBS. In kind it is physicochemical. The protocol: as §1, §2, §3
EPO mRNA was diluted with MilliQ water to prepare a diluted sample in 2-fold dilution series from 100 µg/mL to […], and a calibration curve solution was prepared. 50 μL of the calibration curve solution or the mRNA lipid nanoparticles was mixed with 450 μL of methanol to prepare a measurement solution.
The absorbance of each measurement solution at 260 nm and 330 nm was measured using a UV plate reader (Multiskan Go, Thermo Fisher Scientific), the absorbance at 330 nm was subtracted from the absorbance at 260 nm, and the result was defined as the absorbance of each measurement solution. The total […] nucleic acid concentration was calculated from the calibration curve using the absorbance of each sample measurement solution.
The concentration of the outer water phase nucleic acid was quantified by a standard addition method using a QuanT-iT RiboGreen RNA Assay Kit (Thermo Fisher Scientific). First, a 20× TE buffer included in the above kit was diluted with water, thereby obtaining a 1×TE buffer. TE represents Tris/EDTA (ethylenediaminetetraacetic acid). EPO mRNA was diluted with a TE buffer such that the final concentration was 0 to 400 ng/mL to prepare a nucleic acid diluted series. 10 μL of mRNA lipid nanoparticles diluted 5-fold with TE buffer and 90 µL of a nucleic acid dilution series were mixed in a 96-well plate, 100 μL of a Ribogreen reagent diluted 200-fold with TE buffer was added to each well, and then fluorescence (excitation wavelength: 485 nm, fluorescence wavelength: 535 nm) was measured using a fluorescence plate reader (Infinite 200 Pro M nano+, TECAN). From the obtained results, the outer water phase nucleic acid concentration of each measurement solution was calculated according to the standard addition method.
By using the quantification results of the total mRNA concentration and the mRNA concentration in the outer water phase that were obtained through the above steps, the mRNA encapsulation rate of the mRNA lipid nanoparticles was calculated according to the following Equation. […]

The test system of data set [3] is ICR mice. In words: EPO protein expression in mice after intravenous EPO mRNA lipid nanoparticles. The class given is in vivo. The conditions noted are these: mRNA 0.1 mg/kg, plasma 6 hours after administration. The procedure: as §1, §2, §3
The dispersion liquid of mRNA lipid nanoparticles prepared in above <Preparation of EPO mRNA-encapsulating lipid nanoparticles> was intravenously administered to ICR mice at a mRNA dosage of 0.1 mg/kg. 6 hours after the administration, blood was collected from the caudal vena cava, thereby obtaining plasma. The human EPO […] was quantified by using the obtained blood plasma and Erythropoietin (EPO) Human Elisa Kit (Abcam.plc). The quantitative value is described as a relative amount of EPO protein in a case where Comparative Example 1 is 1.

Setting [4] is: LNP with neutral lipid DSPC, Lipid/Nucleic acid (wt/wt) 20.
Setting [5] is: neutral lipid DSPC, Lipid/Nucleic acid (wt/wt) 20, Comparative Example 1 is 1.
Where [6] appears, read: LNP with neutral lipid DOPE, Lipid/Nucleic acid (wt/wt) 64.

Regarding `CCCCCCCCN(CCCCCC(=O)OCC(CCCCC)CCCCC)C(=O)OCCN(CCCN(CC)CC)CCOC(=O)N(CCCCCCCC)CCCCCC(=O)OCC(CCCCC)CCCCC` [Example 51, Bis(2-pentylheptyl) 12-(3-(diethylamino)propyl)-7,17-dioctyl-8,16-dioxo-9,15-dioxa-7,12,17-triazatricosanedioate], the “Particle size (nm)” value in data set [1] (setting [4]) was 93 nm. For the same compound, in data set [2] (setting [4]), the “Nucleic acid encapsulation rate (%)” value was determined as 94%. Further, the “Relative amount of EPO protein (to Comparative Example 1)” value (from here on “Relative amount of EPO protein”) in data set [3] (setting [5]) is 2.88.

Regarding `CCCCCCCCN(CCCCC(=O)OCC(CCCCCC)CCCCCC)C(=O)OCCN(CCCCN(CC)CC)CCOC(=O)N(CCCCCCCC)CCCCC(=O)OCC(CCCCCC)CCCCCC` [Example 38, bis(2-hexyloctyl) 11-(4-(diethylamino)butyl)-6,16-dioctyl-7,15-dioxo-8,14-dioxa-6,11,16-triazahenicosanedioate], the “Particle size (nm)” value in data set [1] (setting [4]) was 137 nm. Moreover, the “Nucleic acid encapsulation rate (%)” value in data set [2] (setting [4]) is reported as 93%. The “Relative amount of EPO protein” value in data set [3] (setting [5]) amounted to 9.99.

Consider `CCCCCCC(CCCCCC)COC(=O)CCCCN(CCCCCC)C(=O)OCCN(CCOC(=O)N(CCCCCC)CCCCC(=O)OCC(CCCCCC)CCCCCC)CCN(CC)CC` [Example 5, Bis(2-hexyloctyl) 11-(2-(diethylamino)ethyl)-6,16-dihexyl-7,15-dioxo-8,14-dioxa-6,11,16-triazahenicosanedioate], for which the “Particle size (nm)” value in data set [1] (setting [6]) was 106.8 nm; in data set [1] (setting [4]), 88 nm. Moreover, the “Nucleic acid encapsulation rate (%)” value is on record as 99% in data set [2] (setting [6]) and 93% in data set [2] (setting [4]). Moreover, the “Relative amount of EPO protein” value in data set [3] (neutral lipid DOPE, Lipid/Nucleic acid (wt/wt) 64, Comparative Example 1 is 1) turned out to be 11.74; in data set [3] (setting [5]), 9.14.

Take `CCCCCCCCCCCC(=O)OCCN(CCOC(=O)CCCCCCCCCCC)C(=O)OCCN(CCOC(=O)N(CCOC(=O)CCCCCCCCCCC)CCOC(=O)CCCCCCCCCCC)CCN(CC)CC` [Example 20, 2-(2-(2-(bis(2-dodecanoyloxyethyl)carbamoyloxy)ethyl-(2-(diethylamino)ethyl)amino)ethoxycarbonyl-(2-dodecanoyloxyethyl)amino)ethyl dodecanoate]: the “Particle size (nm)” value in data set [1] (setting [4]) worked out at 151 nm. Moreover, the “Nucleic acid encapsulation rate (%)” value in data set [2] (setting [4]) turned out to be 82%. Moreover, the “Relative amount of EPO protein” value in data set [3] (setting [5]) was 1.63.

As to `CCCCCCCCN(CCCCC(=O)OCCCCCCC)C(=O)OCCN(CCOC(=O)N(CCCCCCCC)CCCCC(=O)OCC(CCCCCC)CCCCCC)CCN(CC)CC` [Example 40, 1-Heptyl 21-(2-hexyloctyl) 11-(2-(diethylamino)ethyl)-6,16-dioctyl-7,15-dioxo-8,14-dioxa-6,11,16-triazahenicosanedioate], in data set [1] (setting [4]), the “Particle size (nm)” value came out at 162 nm. The “Nucleic acid encapsulation rate (%)” value in data set [2] (setting [4]) is listed as 74%. Besides, the “Relative amount of EPO protein” value in data set [3] (setting [5]) is on record as 8.10.

With `CCCCCC(CCCCC)COC(=O)CCCCCN(CCCCC)C(=O)OCCN(CCOC(=O)N(CCCCC)CCCCCC(=O)OCC(CCCCC)CCCCC)CCN(CC)CC` [Example 46, Bis(2-pentylheptyl) 12-(2-(diethylamino)ethyl)-8,16-dioxo-7,17-dipentyl-9,15-dioxa-7,12,17-triazatricosanedioate], the “Particle size (nm)” value in data set [1] (setting [4]) is recorded as 104 nm. For the same compound, the “Nucleic acid encapsulation rate (%)” value in data set [2] (setting [4]) is 93%. Also, in data set [3] (setting [5]), the “Relative amount of EPO protein” value was 1.54.

`CCCCCCCCN(CCCCC(=O)OCC(CCCCC)CCCCC)C(=O)OCCN(CCCN(CC)CC)CCOC(=O)N(CCCCCCCC)CCCCC(=O)OCC(CCCCC)CCCCC` [Example 35, Bis(2-pentylheptyl) 11-(3-(diethylamino)propyl)-6,16-dioctyl-7,15-dioxo-8,14-dioxa-6,11,16-triazahenicosanedioate]: the “Particle size (nm)” value in data set [1] (setting [4]) is reported as 165 nm. For the same compound, the “Nucleic acid encapsulation rate (%)” value in data set [2] (setting [4]) stood at 93%. For the same compound, the “Relative amount of EPO protein” value in data set [3] (setting [5]) was 6.49.
